Source: paper PMC2790855, “BU-32: a novel proteasome inhibitor for breast cancer” (2009)

Biological target: T1, 20S proteasome caspase-like activity (β1-subunit) (Homo sapiens, UniProt P28072)
T1 construct: gene PSMB6; with 20S proteasome
T1 sequence (P28072 35-239): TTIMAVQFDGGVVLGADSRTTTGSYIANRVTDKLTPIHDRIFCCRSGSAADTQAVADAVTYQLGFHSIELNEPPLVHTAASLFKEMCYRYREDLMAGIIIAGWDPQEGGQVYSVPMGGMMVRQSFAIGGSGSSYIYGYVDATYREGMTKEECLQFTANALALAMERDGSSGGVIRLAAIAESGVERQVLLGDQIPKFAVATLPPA
Experiment: Proteasome-Glo caspase-like assay in MDA-MB-231, MCF7 and SKBR3 cells treated […] h with […]; reference inhibitor
Format: cell-based

CC(C)C[C@H](NC(=O)[C@H](Cc1ccccc1)NC(=O)c1cnccn1)B(O)O [Bortezomib]
Proteasome-Glo caspase-like assay in MDA-MB-231, MCF7 and SKBR3 cells treated 24: analyzed for the inhibition of chymotryptic-like, caspase-like, and tryptic-like intracellular proteasome activities
